In the NIST ThermoML archive (doi:10.1021/je800849s):

Settings: Liquid, Closed cell (Static) method

CCC [propane]
Settings	vapor or sublimation pressure [kPa]
263.3 K	344
283.25 K	639
291.22 K	795
296.23 K	906
308.21 K	1221
323.19 K	1715
